Data on one molecule can be found in patent US11911356B2, “Regulation of mutant TERT by BRAF V600E/map kinase pathway through FOS/GABP in human cancer” (THE JOHNS HOPKINS UNIVERSITY, priority 2017, dated 2024).

SMILES strings stand for the structures.

One test deals with ERK phosphorylation. Briefly: Western blotting of phosphorylated ERK in inhibitor-treated cells. The class given is cell-based, human. Particulars: 0.5 uM PLX4032, 24 hours. The procedure:
FIG. 2A-2G. BRAF V600E/MAPK pathway regulated TERT expression. (FIG. 2A) TERT expression was analyzed by qRT-PCR in cells treated with 0.5 uM PLX4032 or 0.2 uM AZD6244 for 24 hours (upper panel). The corresponding levels of phosphorylated ERK (p-ERK), total ERK (t-ERK), and beta-actin were detected by Western blotting (lower panel). The relative TERT mRNA expression levels were normalized to the DMSO control group. (FIG. 2B) Luciferase reporting assay of TERT promoter activities in K1 cells treated with DMSO or PLX4032 (0.5 uM). (FIG. 2C, 2D) Specific shRNA against BRAF were used to knock down BRAF in thyroid cancer cell lines BCPAP and K1 and melanoma cell line A375. Scramble shRNA was used as control. Cells were then subjected to Western blotting (FIG. 2C) and qRT-PCR (FIG. 2D). (FIG. 2E) Sequencing of the BRAF exon-15 in the parental and heterozygous BRAF-V600E knock-in SW48 cells. BRAF V600E was knocked in on one allele of BRAF by rAAV technology through homologous recombination and Cre recombinase of the Neo cassette. (FIG. 2F) Western blotting analyses of phosphorylation of ERK (p-ERK), total ERK (t-ERK), BRAF, and beta-actin in the parental and BRAF-V600E knock-in SW48 cells. (FIG. 2G) TERT promoter luciferase reporter assay in SW48 cells with/without BRAF V600E knock-in. **P<0.01, ***P<0.001, by 2-tailed Student's t test. P values are for the comparison of the indicated condition with DMSO (FIG. 2B), scramble (FIG. 2D), or BRAF-WT groups (FIG. 2G). All the values represent the average standard deviation (SD) of triplicate samples from a typical experiment. All the experiments were performed three times with similar results. […]
(§1) Cells were lysed in the RIPA buffer (#sc-24948; Santa Cruz Biotechnology, Santa Cruz, CA) with protease inhibitor cocktail (#P8340; Sigma-Aldrich) and phosphatase inhibitor cocktail (#P0044; Sigma-Aldrich) and Western blotting analysis was performed as we previously described^54. […] Signals were detected by SuperSignal™ West Pico PLUS Chemiluminescent Substrate (#34579; Thermo Fisher Scientific). […]

A further test has as its system FOS phosphorylation. Put plainly: Western blotting of phosphorylated FOS in K1 and A375 cells. To be noted: 0.5 uM PLX4032 for 0, 1 and 24 hours. The format is cell-based, human. Here is the method:
FIG. 6A-6J. BRAF V600E promoted FOS binding to GABPB by upregulating FOS phosphorylation. (FIG. 6A) Western blotting analyses for phosphorylated-FOS (p-FOS), total FOS (t-FOS), BRAF, and beta-actin in K1 and A375 cells with or without stable BRAF knockdown. (FIG. 6B) Western blotting analyses of p-FOS, t-FOS, p-ERK, and beta-actin in K1 and A375 cells treated with 0.5 uM PLX4032 for 0, 1, and 24 hours. (FIG. 6C-6E) Effects of FOS phosphorylation on GABPB and TERT activation. (FIG. 6C) KAT18 cells were serum-starved for 24 hours and transiently transfected with FOS wild-type (FOS-wt) or mutant (FOS-mut) bearing none of the potential ERK-targeted phosphorylation sites, followed by Western blotting analysis for TERT, GABPB, p-FOS, t-FOS, and beta-actin. (FIG. 6D) KAT18 cells were transfected with FOS-wt or FOS-mut along with GABPB 5′-UTR luciferase reporter and Renilla luciferase (pRL-TK) plasmids in the absence of serum for 24 hours, and the luciferase activities were then measured. […]
as §1
In general terms: In western blotting, separated proteins are transferred to a membrane and probed.

For test [1], the system named is MEK and ERK phosphorylation. Particulars: wild-type BRAF cells; previous finding (refs 28, 29); cited from earlier work.

`CCCS(=O)(=O)Nc1ccc(F)c(C(=O)c2c[nH]c3ncc(-c4ccc(Cl)cc4)cc23)c1F` [PLX4032]: the ERK phosphorylation entry is given as “specifically suppressed ERK phosphorylation” with ERK phosphorylation (cells harboring BRAF V600E mutation) and “increase in ERK phosphorylation” in the test on ERK phosphorylation (several wild-type BRAF cell lines). The “phosphorylation of FOS” value with FOS phosphorylation is “significantly decreased the phosphorylation of FOS”. Also, the “MEK and ERK phosphorylation” value in test [1] is “induced MEK and ERK phosphorylation”.
